This is an account of results in US8486931B2, “Substituted oxindole compounds” (Abbott GmbH & Co. KG, priority 2007, dated 2013).

The test concerns the target T1, human vasopressin V1b receptor (Homo sapiens, UniProt P47901).
T1 construct: expressed in transfected cells; host or cells: CHO-K1 (cell line hV1b-3H2_CHO), membrane preparation
T1 sequence (P47901 1-424): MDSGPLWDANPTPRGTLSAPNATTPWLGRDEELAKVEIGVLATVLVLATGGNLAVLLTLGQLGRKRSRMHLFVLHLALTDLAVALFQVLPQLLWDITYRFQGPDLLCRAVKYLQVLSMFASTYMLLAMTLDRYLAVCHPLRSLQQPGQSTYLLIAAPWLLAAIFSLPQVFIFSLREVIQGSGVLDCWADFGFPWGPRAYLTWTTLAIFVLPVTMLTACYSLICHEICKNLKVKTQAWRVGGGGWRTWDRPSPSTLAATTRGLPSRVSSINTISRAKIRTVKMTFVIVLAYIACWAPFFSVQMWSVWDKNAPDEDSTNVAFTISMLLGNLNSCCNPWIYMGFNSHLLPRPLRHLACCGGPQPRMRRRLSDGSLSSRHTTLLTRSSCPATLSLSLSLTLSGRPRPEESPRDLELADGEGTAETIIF
As to the kind of experiment: Vasopressin V1b receptor binding assay. Conditions: membranes from CHO-K1 cells with stably expressed human V1b receptors, 1.5 nM 3H-AVP displacement; with more than one stereogenic center: the diastereomer with stronger affinity. The procedure:
Such compounds can be investigated in suitable assays which establish the affinity to a receptor, with the affinity constant Ki represening a measure of the potency of the compounds and a smaller value representing a larger potency. The compounds of the invention were tested in the following receptor binding assay for their affinity for the V1 b receptor.
Vasopressin V1 b Receptor Binding Assay:
The test substances were dissolved in a concentration of 10^−2 M in DMSO (dimethyl sulfoxide) and further diluted to 5×10^−4 M to 5×10^−9 M in DMSO. This series of DMSO predilutions was diluted 1:10 with assay buffer. The substance concentration was again diluted 1:5 in the assay mixture (2% DMSO in the mixture).
The membrane pellet was again homogenized and centrifuged as described and then taken up in 50 mM Tris-HCl, pH 7.4, homogenized and stored in aliquots frozen in liquid nitrogen at −190° C.
The incubation buffer was: 50 mM Tris, 10 mM MgCl2, 0.1% BSA, pH 7.4.
The nonspecific binding was determined with 1 μM AVP (Bachem #H1780). All determinations were carried out as triplicate determinations. After incubation (60 minutes at room temperature), the free radioligand was removed by vacuum filtration (Skatron cell harvester 7000) through Whatman GF/B glass fiber filter mats, and the filters were transferred into scintillation vials. The liquid scintillation measurement took place in a Tricarb model 2000 or 2200CA instrument (Packard). Conversion of the measured cpm into dpm was carried out with the aid of a standard quench series.
The binding parameters were calculated by nonlinear regression in SAS.
The above assay was used to measure the affinities of the compounds of the invention for the human vasopressin V1 b receptor and to determine with affinity constants (Ki).
Consider `CCOc1nc(Cl)ccc1C1(N2CCN(c3ccncc3)CC2)C(=O)N(S(=O)(=O)c2cccc3cccnc23)c2ccc(C#N)cc21` (racemic) [Example 24, (±)-5-Cyano-3-(6-chloro-2-ethoxypyridin-3-yl)-3-(4-pyridin-4-ylpiperazin-1-yl)-1-(quinoline-8-sulfonyl)-2,3-dihydro-1H-indol-2-one], for which the Ki (usually the equilibrium dissociation constant of an inhibitor or competing ligand from its target) is less than 10 nM.

Turning to `CCOc1ccccc1C1(N2CCN(c3ccncc3)CC2)C(=O)N(S(=O)(=O)c2ccc(OC)c3cccnc23)c2ccc(C#N)cc21` (racemic) [Example 25, (±)-5-Cyano-3-(2-ethoxyphenyl)-1-(5-methoxyquinoline-8-sulfonyl)-3-(4-pyridin-4-yl-piperazin-1-yl)-2,3-dihydro-1H-indol-2-one], the Ki is less than 10 nM.

`CCOc1ccccc1C1(N2CCN(c3ccncc3)CC2)C(=O)N(S(=O)(=O)c2ccc(F)c3cccnc23)c2ccc(C#N)cc21` (racemic) [Example 26, (±)-5-Cyano-3-(2-ethoxyphenyl)-1-(5-fluoroquinoline-8-sulfonyl)-3-(4-pyridin-4-yl-piperazin-1-yl)-2,3-dihydro-1H-indol-2-one] yielded a Ki of 10 to 50 nM.

`CCOc1nc(Cl)ccc1C1(N2CCN(c3ccnc(C)c3)CC2)C(=O)N(S(=O)(=O)c2cccc3cccnc23)c2ccc(C#N)cc21` (racemic) [Example 27, (±)-5-Cyano-3-(6-chloro-2-ethoxypyridin-3-yl)-3-[4-(2-methylpyridin-4-yl)-piperazin-1-yl]-1-(quinoline-8-sulfonyl)-2,3-dihydro-1H-indol-2-one] yielded a Ki of 10 to 50 nM.

`CCOc1nc(Cl)ccc1C1(N2CCN(c3ccncc3)CC2)C(=O)N(S(=O)(=O)c2ccc(OC)cc2OC)c2ccc(C#N)cc21` (racemic) [Example 29, (±)-5-Cyano-3-(6-chloro-2-ethoxypyridin-3-yl)-1-(2,4-dimethoxybenzenesulfonyl)-3-(4-pyridin-4-ylpiperazin-1-yl)-2,3-dihydro-1H-indol-2-one] returned a Ki of 10 to 50 nM.

For the molecule `CCOc1nc(Cl)ccc1C1(N2CCN(c3ccncc3)CC2)C(=O)N(S(=O)(=O)c2cccc3c(C)ccnc23)c2ccc(C#N)cc21` (racemic) [Example 30, (±)-5-Cyano-3-(6-chloro-2-ethoxypyridin-3-yl)-1-(4-methylquinoline-8-sulfonyl)-3-(4-pyridin-4-ylpiperazin-1-yl)-2,3-dihydro-1H-indol-2-one], the Ki lay within 10 to 50 nM.

The molecule `CCOc1cc(F)ccc1C1(N2CCN(c3ccncc3)CC2)C(=O)N(S(=O)(=O)c2ccc(OC)c3cccnc23)c2ccc(C#N)cc21` (racemic) [Example 31, (±)-5-Cyano-3-(2-ethoxy-4-fluorophenyl)-1-(5-methoxyquinoline-8-sulfonyl)-3-(4-pyridin-4-ylpiperazin-1-yl)-2,3-dihydro-1H-indol-2-one] had a Ki of 10 to 50 nM.

Molecule `CCOc1cc(F)ccc1C1(N2CCN(c3ccncc3)CC2)C(=O)N(S(=O)(=O)c2ccc(OC)cn2)c2ccc(C#N)cc21` (racemic) [Example 32, (±)-5-Cyano-3-(2-ethoxy-4-fluorophenyl)-1-(5-methoxypyridine-2-sulfonyl)-3-(4-pyridin-4-ylpiperazin-1-yl)-2,3-dihydro-1H-indol-2-one] had a Ki of less than 10 nM.

Regarding `CCOc1ccc(OC)cc1C1(N2CCN(c3ccnc(C)c3)CC2)C(=O)N(S(=O)(=O)c2ccc(OC)c3cccnc23)c2ccc(C#N)cc21` (racemic) [Example 33, (±)-5-Cyano-3-(2-ethoxy-5-methoxyphenyl)-1-(5-methoxyquinoline-8-sulfonyl)-3-[4-(2-methylpyridin-4-yl)piperazin-1-yl]-2,3-dihydro-1H-indol-2-one], the inhibition constant (Ki) was less than 10 nM.

The molecule `CCOc1nc(Cl)ccc1C1(N2CCN(c3ccnc(C)c3)CC2)C(=O)N(S(=O)(=O)c2ccc(OC)cn2)c2ccc(C#N)cc21` (racemic) [Example 34, (±)-5-Cyano-3-(6-chloro-2-ethoxypyridin-3-yl)-1-(5-methoxypyridine-2-sulfonyl)-3-[4-(2-methylpyridin-4-yl)piperazin-1-yl]-2,3-dihydro-1H-indol-2-one] showed an inhibition constant Ki of less than 10 nM.

The molecule `CCOc1ccc(OC)cc1C1(N2CCN(c3ccnc(C)c3)CC2)C(=O)N(S(=O)(=O)c2ccc(OC)cn2)c2ccc(C#N)cc21` (racemic) [Example 35, (±)-5-Cyano-3-(2-ethoxy-5-methoxyphenyl)-1-(5-methoxypyridine-2-sulfonyl)-3-[4-(2-methylpyridin-4-yl)piperazin-1-yl]-2,3-dihydro-1H-indol-2-one] yielded a Ki of less than 10 nM.

Regarding `CCOc1nc(Cl)ccc1C1(N2CCN(c3ccncc3)CC2)C(=O)N(S(=O)(=O)c2ccc(OC)cn2)c2ccc(C#N)cc21` (racemic) [Example 36, (±)-5-Cyano-3-(6-chloro-2-ethoxypyridin-3-yl)-1-(5-methoxypyridine-2-sulfonyl)-3-(4-pyridin-4-ylpiperazin-1-yl)-2,3-dihydro-1H-indol-2-one], the Ki was less than 10 nM.

`COc1ccccc1C1(N2CCN(c3ccncc3)CC2)C(=O)N(S(=O)(=O)c2cccc3cccnc23)c2ccc(Cl)cc21` (racemic) [Example 37, (±)-5-Chloro-3-(2-methoxyphenyl)-3-(4-pyridin-4-ylpiperazin-1-yl)-1-(quinoline-8-sulfonyl)-1,3-dihydroindol-2-one] gave an inhibition constant Ki of less than 10 nM.

The molecule `CCOc1ccccc1C1(N2CCN(c3ccncc3)CC2)C(=O)N(S(=O)(=O)c2cccc3cccnc23)c2ccc(C#N)cc21` (racemic) [Example 38, (±)-5-Cyano-3-(2-ethoxyphenyl)-3-(4-pyridin-4-ylpiperazin-1-yl)-1-(quinoline-8-sulfonyl)-2,3-dihydro-1H-indol-2-one] showed a Ki of 10 to 50 nM.

Molecule `COc1ccccc1C1(N2CCN(c3ccncc3)CC2)C(=O)N(S(=O)(=O)c2cccc3cccnc23)c2cc(C)ccc21` (racemic) [Example 39, (±)-3-(2-Methoxyphenyl)-6-methyl-3-(4-pyridin-4-ylpiperazin-1-yl)-1-(quinoline-8-sulfonyl)-1,3-dihydroindol-2-one] registered a Ki of 10 to 50 nM.

`COc1ccc(CN(C)C)cc1C1(N2CCN(c3ccncc3)CC2)C(=O)N(S(=O)(=O)c2cccc3cccnc23)c2ccc(Cl)cc21` (racemic) [Example 41, (±)-5-Chloro-3-(5-dimethylaminomethyl-2-methoxyphenyl)-3-(4-pyridin-4-ylpiperazin-1-yl)-1-(quinoline-8-sulfonyl)-1,3-dihydroindol-2-one] yielded a Ki of 10 to 50 nM.

In the case of `COc1ncccc1C1(N2CCN(c3ccncc3)CC2)C(=O)N(S(=O)(=O)c2cccc3cccnc23)c2ccc(Cl)cc21` (racemic) [Example 42, (±)-5-Chloro-3-(2-methoxypyridin-3-yl)-3-(4-pyridin-4-ylpiperazin-1-yl)-1-(quinoline-8-sulfonyl)-1,3-dihydroindol-2-one], the Ki fell in the range of 10 to 50 nM.

Molecule `COc1ccccc1C1(N2CCN(c3ccncc3)CC2)C(=O)N(S(=O)(=O)c2cccc3cccnc23)c2ccc(C#N)cc21` (racemic) [Example 43, (±)-5-Cyano-3-(2-methoxyphenyl)-3-(4-pyridin-4-ylpiperazin-1-yl)-1-(quinoline-8-sulfonyl)-2,3-dihydro-1H-indol-2-one] displayed an inhibition constant Ki of 10 to 50 nM.

The molecule `CCOc1ccccc1C1(N2CCN(c3ccnc(C)c3)CC2)C(=O)N(S(=O)(=O)c2cccc3cccnc23)c2ccc(C#N)cc21` (racemic) [Example 44, (±)-5-Cyano-3-(2-ethoxyphenyl)-3-[4-(2-methylpyridin-4-yl)piperazin-1-yl]-1-(quinoline-8-sulfonyl)-2,3-dihydro-1H-indol-2-one] had a Ki of 10 to 50 nM.

Turning to `CCOc1cc(F)ccc1C1(N2CCN(c3ccncc3)CC2)C(=O)N(S(=O)(=O)c2cccc3cccnc23)c2ccc(C#N)cc21` (racemic) [Example 46, (±)-5-Cyano-3-(2-ethoxy-4-fluorophenyl)-3-(4-pyridin-4-ylpiperazin-1-yl)-1-(quinoline-8-sulfonyl)-2,3-dihydro-1H-indol-2-one], the Ki is 10 to 50 nM.

In the case of `CCOc1ccc(OC)cc1C1(N2CCN(c3ccncc3)CC2)C(=O)N(S(=O)(=O)c2ccc(C)cn2)c2ccc(C#N)cc21` (racemic) [Example 47, (±)-5-Cyano-3-(2-ethoxy-5-methoxyphenyl)-1-(5-methylpyridine-2-sulfonyl)-3-(4-pyridin-4-ylpiperazin-1-yl)-2,3-dihydro-1H-indol-2-one], the Ki was less than 10 nM.
